According to ChEMBL document CHEMBL1126757, “Benzoquinazoline inhibitors of thymidylate synthase: enzyme inhibitory activity and cytotoxicity of some 3-amino- and 3-methylbenzo[f]quinazolin-1(2H)-ones” (J Med Chem, 1993):
pIC50: −log10 of the molar value.

Legend:
[1] = target: Thymidylate synthase (Escherichia coli, UniProt C3SWJ7); assay: Inhibition against thymidylate synthase (TS) in Escherichia coli; settings: read-out: I50
[2] = system: SW480; assay: cells; settings: Homo sapiens
[3] = target: Thymidylate synthase (Homo sapiens, UniProt P04818)
Chain of Thymidylate synthase (Homo sapiens, UniProt P04818) (P04818 whole entry): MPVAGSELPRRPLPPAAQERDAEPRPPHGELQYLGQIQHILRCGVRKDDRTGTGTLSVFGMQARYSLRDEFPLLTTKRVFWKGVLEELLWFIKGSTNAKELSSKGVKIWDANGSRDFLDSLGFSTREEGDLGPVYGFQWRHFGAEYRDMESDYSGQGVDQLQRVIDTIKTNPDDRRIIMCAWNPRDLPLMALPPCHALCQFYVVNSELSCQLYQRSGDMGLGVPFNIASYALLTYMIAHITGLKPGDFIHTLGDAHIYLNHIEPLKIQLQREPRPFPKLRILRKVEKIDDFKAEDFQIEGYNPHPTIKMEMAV

Chain of Thymidylate synthase (Escherichia coli, UniProt C3SWJ7) (C3SWJ7 whole entry): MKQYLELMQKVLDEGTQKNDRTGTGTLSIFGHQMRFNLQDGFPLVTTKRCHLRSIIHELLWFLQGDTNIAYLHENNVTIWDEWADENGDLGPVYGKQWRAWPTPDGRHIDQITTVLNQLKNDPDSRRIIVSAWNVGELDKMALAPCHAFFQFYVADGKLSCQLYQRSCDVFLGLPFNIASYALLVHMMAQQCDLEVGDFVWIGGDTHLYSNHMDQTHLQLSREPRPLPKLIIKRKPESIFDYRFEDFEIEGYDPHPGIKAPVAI

Compound	pIC50 [1]	pIC50 [2]	pIC50 [3]
Nc1nc2c(c(=O)[nH]1)-c1cccc(Br)c1CC2	3.96		
Nc1nc(O)c2c(ccc3ccc(Br)c(N)c32)n1	6.19	4.52	6.44
Cc1cc(C)c2ccc3nc(N)[nH]c(=O)c3c2c1	5.30		
Oc1nc(NCc2ccccc2)nc2ccc3ccc(Cl)cc3c12		4.92	
Nc1ccc2c(c1)CCc1nc(N)[nH]c(=O)c1-2	4.05		
Cc1nc2c(c(=O)[nH]1)-c1cc(Br)ccc1CC2	5.06	4.19	
C#Cc1ccc2c(c1)-c1c(nc(N)[nH]c1=O)CC2	4.58	4.46	
Nc1ccc2c(ccc3nc(N)nc(O)c32)c1		4.00	5.12
Nc1nc(O)c2c(ccc3cc(Br)c([N+](=O)[O-])cc32)n1	4.55		
Nc1nc2ccc3ccc(O)cc3c2c(=O)[nH]1	5.74	4.40	6.32
Nc1nc(O)c2c(cc(CO)c3ccccc32)n1	3.99	< 4.00	5.07
Nc1nc2ccc3c(Br)cccc3c2c(=O)[nH]1			5.05
Nc1nc2ccc3c([N+](=O)[O-])c(Br)ccc3c2c(=O)[nH]1	3.98		
Nc1nc2ccc3c(N)c(Br)ccc3c2c(=O)[nH]1		4.70	4.77
Nc1nc2ccc3cc(Cl)c(Cl)cc3c2c(=O)[nH]1	5.27	4.70	6.15
Cc1cc2nc(N)[nH]c(=O)c2c2ccccc12	6.00		
Cc1nc(O)c2c(ccc3c(I)cccc32)n1		4.30	
Cc1cccc2c1CCc1nc(N)[nH]c(=O)c1-2	4.23		
CCSc1ccc2c(c1)-c1c(nc(N)[nH]c1=O)CC2	4.50	4.40	
Nc1nc(O)c2c(n1)CCc1ccc(Br)cc1-2	5.70	4.60	
Nc1nc2ccc3ccccc3c2c(=O)[nH]1	5.15	4.28	5.97
Cc1ccc2c(c1)-c1c(O)nc(N)nc1CC2	5.24	< 4.00	6.14
Nc1nc(O)c2c(n1)CCc1ccc(I)cc1-2	5.30	4.82	
Nc1nc(O)c2c(ccc3cc(N)c(Br)cc32)n1	5.55	4.82	6.47
Nc1nc2c(c(=O)[nH]1)-c1cc(Br)c([N+](=O)[O-])cc1CC2	4.01	4.92	

Compound	pIC50 [1]	pIC50 [2]	pIC50 [3]
Nc1nc2c(c(=O)[nH]1)-c1cc(Br)c(N)cc1CC2	5.54	4.82	
Nc1ccc2ccc3nc(N)nc(O)c3c2c1	6.22	4.10	6.20
CC1(C)Cc2nc(N)nc(O)c2-c2ccccc21	4.30		4.36
CC1Cc2nc(N)nc(O)c2-c2ccccc21 (centres undefined)	4.64		
Nc1nc(O)c2c(n1)CCc1ccccc1-2	5.15	< 4.00	
Cc1cccc2c1ccc1nc(N)nc(O)c12	4.74	4.46	5.12
CSc1ccc2ccc3nc(N)nc(O)c3c2c1	5.80		6.34
COc1cccc2c1CCc1nc(N)nc(O)c1-2	3.60		
Nc1nc2ccc3ccc(Cl)cc3c2c(=O)[nH]1	6.28	5.52	7.60
O=CNc1nc(O)c2c(ccc3ccc(Br)cc32)n1		5.15	6.27
Nc1nc2ccc3cc(F)cc([N+](=O)[O-])c3c2c(=O)[nH]1			4.46
Cc1cc2nc(N)nc(O)c2c2cc(Cl)ccc12	6.77	5.70	7.70
Nc1nc(O)c2c(ccc3c(N)cccc32)n1	4.41	< 4.00	4.82
Nc1nc(O)c2c(ccc3ccc(Br)c([N+](=O)[O-])c32)n1		4.70	6.64
Nc1nc2ccc3cc([N+](=O)[O-])cc([N+](=O)[O-])c3c2c(=O)[nH]1	3.98		3.84
COCc1cc2nc(N)nc(O)c2c2ccccc12		4.22	4.82
Nc1nc2ccc3c(Cl)cccc3c2c(=O)[nH]1			4.59
Nc1nc2c(c(=O)[nH]1)-c1ccc(F)cc1CC2	3.12	4.10	
Nc1nc(O)c2c(ccc3c([N+](=O)[O-])c(F)ccc32)n1	3.39	4.52	3.26
Nc1nc(O)c2c(ccc3ccc(Br)cc32)n1	6.57	5.00	7.66
Nc1nc2c(c(=O)[nH]1)-c1cc(Cl)ccc1CC2	5.80	4.60	
Cc1nc(O)c2c(ccc3ccc(Cl)cc32)n1		5.00	
Cc1nc(O)c2c(ccc3c(Cl)cccc32)n1		4.30	
Cc1nc2c(c(=O)[nH]1)-c1cccc(Cl)c1CC2		< 4.00	3.71

The remaining lines, values ahead:

pIC50 [1]	pIC50 [2]	pIC50 [3]	Compound
3.62			COc1ccc2c(c1)CCc1nc(N)nc(O)c1-2
5.83	4.52	6.75	Cc1ccc2ccc3nc(N)nc(O)c3c2c1
6.20	4.22	6.28	Oc1nc(NCc2ccccc2)nc2ccc3c(Br)cccc3c12
5.92	4.22		CSc1ccc2c(c1)-c1c(nc(N)[nH]c1=O)CC2
5.96	5.22	6.92	C=Cc1ccc2ccc3nc(N)nc(O)c3c2c1
3.64	4.30	4.36	Nc1nc2ccc3cc(F)ccc3c2c(=O)[nH]1
5.29	< 4.00	5.11	Nc1cc(N)c2c(ccc3nc(N)nc(O)c32)c1
4.48	< 4.00		Cc1nc(O)c2c(n1)CCc1ccc(F)cc1-2
4.77	< 4.00	4.87	Nc1ccc2c(c1)-c1c(nc(N)[nH]c1=O)CC2
	4.70	5.38	CCOc1ccc2ccc3nc(N)nc(O)c3c2c1
6.49	5.30	7.66	Nc1nc(O)c2c(ccc3ccc(I)cc32)n1
5.62	5.00	6.30	Nc1nc(O)c2c(ccc3ccc(F)cc32)n1
		4.34	Nc1nc2ccc3cc(Cl)ccc3c2c(=O)[nH]1
4.33	4.15	4.13	Nc1nc(O)c2c(ccc3cc(F)cc(N)c32)n1
4.60			Nc1nc2ccc3c(Br)c(N)c(Br)cc3c2c(=O)[nH]1
		5.16	Cc1cc2nc(N)[nH]c(=O)c2c2ccc(Cl)cc12
3.68	4.52	4.60	Nc1nc2ccc3c(F)cccc3c2c(=O)[nH]1
3.93	< 4.00		Cc1nc2c(c(=O)[nH]1)-c1ccccc1CC2
4.92	< 4.00	5.08	Nc1nc2c(c(=O)[nH]1)-c1cc(O)ccc1CC2
5.37		5.48	CCSc1ccc2ccc3nc(N)nc(O)c3c2c1
4.85	4.70	6.22	C#Cc1ccc2ccc3nc(N)nc(O)c3c2c1
5.20	5.00	5.88	Nc1nc2ccc3c(I)cccc3c2c(=O)[nH]1
4.51	5.60	5.51	Nc1nc2ccc3cc([N+](=O)[O-])c(Br)cc3c2c(=O)[nH]1
5.01	< 4.00	5.64	Nc1nc2ccc3cccc([N+](=O)[O-])c3c2c(=O)[nH]1
4.37			Nc1nc(O)c2c(n1)CCc1cc([N+](=O)[O-])ccc1-2
5.44		6.43	CC1Cc2nc(N)nc(O)c2-c2cc(Cl)ccc21 (centres undefined)
5.40	4.10		Nc1nc(O)c2c(n1)CCc1ccc(F)cc1-2
	4.30		Cc1nc(O)c2c(ccc3c(Br)cccc32)n1
5.16	5.22		Cc1nc(O)c2c(ccc3ccc(Br)cc32)n1
3.48			Nc1nc2c(c(=O)[nH]1)-c1ccc(Cl)cc1CC2
